Drawing on patent US7858646B2, “Potentiators of glutamate receptors” (Eli Lilly and Company, priority 2004, dated 2010), this text covers EC50 and IC50 for four molecules.

pEC50, pIC50: −log10 of the molar value. Where only a bound is given, the exact number is not on record here.

One assay deals with T1, human mGlu2 receptors (Homo sapiens, UniProt Q14416).
T1 construct: expressed in transfected cells; host or cells: RGT cells (co-transfected with rat GLAST, stably transfected with Galpha15)
Nature of the assay: Potentiation of glutamate-induced increase in intracellular calcium with a mGlu2 expressing cell line (FLIPR). In kind it is cell-based. The conditions noted are these: RGT cells expressing human mGlu2 and Galpha15; with submaximal glutamate (e.g. 1 μM). On the procedure:
Potentiation of Glutamate-Induced Increase in Intracellular Calcium with a mGlu2 Expressing Cell Line.
Cell lines expressing human mGlu2 receptors are derived as previously described (Desai, Burnett, Mayne, Schoepp, Mol. Pharmacol. 48, 648-657, 1995) and cultured in DMEM with 5% dialyzed fetal bovine serum, 1 mM glutamine, 1 mM sodium pyruvate, 50 μg/mL Geneticin G418, and 0.2 mg/mL hygromycin B. Confluent cultures are passaged weekly. These cells are referred to as RGT cells for Rat Glutamate Transporter, and have been co-transfected with the glutamate/aspartate transporter GLAST. The RGT cell line expressing the mGlu2 receptors is stably transfected with the promiscuous G-protein, Galpha15 to change the signaling pathway to the mGlu2 receptor to one that could be easily measured through release of intracellular calcium. Thus, intracellular calcium levels are monitored before and after the addition of drugs on a Fluorometric Imaging Plate Reader (i.e. FLIPR, Molecular Devices). The following buffer is used throughout as an assay buffer: 10 mM KCl, 138 mM NaCl, 5 mM Ca Cl2, 1 mM MgC2, 4 mM Na H2PO4, 10 mM Glucose, 10 mM HEPES, pH 7.4. Cells that had been plated 48 hours prior at a density of 30-40,000 cells per well in a 96-well plate are loaded with a calcium-sensitive dye for 90 minutes at 25° C. Fluo-3 (2 mM in DMSO, Molecular Probes) are mixed with a equal volume of 10% pluronic acid in DMSO, and diluted to 8 μM into the buffer described above containing 10% fetal bovine serum to make the loading buffer. Following loading of the cells, the loading buffer is removed and replaced with assay buffer prior to drug addition and monitoring on the FLIPR. The resulting signal from the addition of compounds of formula (I) and submaximal concentrations of a glutamate-site agonist (e.g. 1 μM glutamate) is determined by taking the difference of the maximal fluorescent peak height minus the background fluorescence in each well and expressing the results as a percent of the signal seen with a maximal glutamate response (30 μM glutamate, typically about 30-50,000 Relative Fluorescent Units). Least squares curve fitting with a four-parameter equation is then applied to the resulting dose-% response curve to determine the resulting EC50 values.

A further assay addresses T2, human CysLT1 receptor (Homo sapiens, UniProt Q9Y271).
T2 construct: expressed in transfected cells; host or cells: AV12-664 (ATCC-9595)
T2 sequence (Q9Y271 1-337): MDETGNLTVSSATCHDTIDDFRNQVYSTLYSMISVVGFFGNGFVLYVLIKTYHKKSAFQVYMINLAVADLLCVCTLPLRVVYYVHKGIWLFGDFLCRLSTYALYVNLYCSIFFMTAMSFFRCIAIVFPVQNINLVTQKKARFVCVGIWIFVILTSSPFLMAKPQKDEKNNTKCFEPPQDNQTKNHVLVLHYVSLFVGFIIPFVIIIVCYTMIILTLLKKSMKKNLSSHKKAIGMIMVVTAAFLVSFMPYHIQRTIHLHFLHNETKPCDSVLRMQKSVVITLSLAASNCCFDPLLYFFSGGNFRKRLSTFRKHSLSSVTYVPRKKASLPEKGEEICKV
Nature of the assay: Antagonism of LTD4-induced increase in intracellular calcium within a CysLT1 receptor expressing cell line (FLIPR). It counts as cell-based. The following applies: AV12-664 cells expressing human CysLT1; 6 nM LTD4; read-out: antagonism of CysLT1 receptors, IC50. As for the experimental part: Antagonism of Cysteinyl-leukotriene D4 (LTD4)-Induced Increase in Intracellular Calcium within a Cysteinyl-Leukotriene 1 (CysLT1) Receptor Expressing Cell Line.
Cell lines expressing the human CysLT1 receptor [AV12-664 (ATCC-9595)] are derived and maintained in culture media: DMEM with 5% dialyzed fetal bovine serum, 1 mM glutamine, and 1 mM sodium pyruvate. Confluent cultures are passaged weekly. Intracellular calcium levels are monitored in the CysLT1-expressing cells with the addition of LTD4, with or without prior exposure to the compounds being tested as antagonists with a Fluorometric Imaging Plate Reader (FLIPR, Molecular Devices). The following buffer is used throughout as an assay buffer: Hanks Buffered Saline Solution without phenol red (GIBCO), with 10 mM HEPES pH 7.4. Cells that had been plated 48 hours prior at a density of 20-25,000 cells per well in a 96-well plate are loaded with a calcium-sensitive dye for 90 minutes at 25° C. Fluo-3 (2 mM in DMSO, Molecular Probes) is mixed with an equal volume of 10% pluronic acid in DMSO, and diluted to 8 μM in the buffer described above containing 10% fetal bovine serum to make the loading buffer. Following loading of the cells, the buffer is removed and replaced with assay buffer prior to drug addition and monitoring on the FLIPR for several minutes. The resulting signal from the addition of 6 nM LTD4 (provides approximately 90% of the maximal signal with 25 nM LTD4) is determined by taking the difference of the maximal fluorescent peak height minus the background fluorescence in each well and expressing the results as a percent of the signal seen without pretreatment of the test compound(s). Least squares curve fitting with a four-parameter equation is applied to the resulting dose-% inhibition curve to determine the resulting IC50 values.
(In general: Calcium assays in cells follow changes in intracellular calcium, usually with a dye or a luminescent sensor.)

T1 sequence (Q14416 19-872): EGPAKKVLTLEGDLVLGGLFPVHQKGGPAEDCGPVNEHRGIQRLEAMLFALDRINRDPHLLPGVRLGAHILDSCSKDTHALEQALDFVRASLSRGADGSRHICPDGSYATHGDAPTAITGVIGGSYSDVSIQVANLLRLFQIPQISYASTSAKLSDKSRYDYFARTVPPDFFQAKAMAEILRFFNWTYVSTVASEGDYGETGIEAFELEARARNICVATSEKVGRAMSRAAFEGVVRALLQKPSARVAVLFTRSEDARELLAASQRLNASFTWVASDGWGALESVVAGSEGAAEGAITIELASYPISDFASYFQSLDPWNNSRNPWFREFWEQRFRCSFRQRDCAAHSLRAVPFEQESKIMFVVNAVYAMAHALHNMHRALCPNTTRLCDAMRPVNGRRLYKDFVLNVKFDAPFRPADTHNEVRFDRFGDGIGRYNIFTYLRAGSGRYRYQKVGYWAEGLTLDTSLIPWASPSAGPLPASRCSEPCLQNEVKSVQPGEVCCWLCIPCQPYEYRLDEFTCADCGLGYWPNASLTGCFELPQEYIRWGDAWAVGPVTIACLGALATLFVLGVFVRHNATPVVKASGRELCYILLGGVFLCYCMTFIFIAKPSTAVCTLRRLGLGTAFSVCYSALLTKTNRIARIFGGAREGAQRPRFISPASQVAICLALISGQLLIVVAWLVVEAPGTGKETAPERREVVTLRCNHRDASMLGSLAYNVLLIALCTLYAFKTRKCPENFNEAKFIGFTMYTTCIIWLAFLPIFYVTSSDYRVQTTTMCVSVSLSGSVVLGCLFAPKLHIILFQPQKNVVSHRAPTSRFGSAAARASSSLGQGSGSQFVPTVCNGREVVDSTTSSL

As a reminder, the pEC50 is −log10 of the EC50, conventionally taken in molar units. The term pIC50 denotes −log10 of the IC50, conventionally taken in molar units. For `CCCc1c(OCc2cccc(Sc3cc(C(=O)O)ccn3)c2)ccc(C(C)=O)c1O` [Example 84, 6-(3-((4-acetyl-3-hydroxy-2-propylphenoxy)methyl)phenylthio)isonicotinic acid], the pEC50 on human mGlu2 receptors is more than 6.46. Moreover, the pIC50 on human CysLT1 receptor is more than 6.82.

Regarding `CC(=O)c1ccc(OCc2cccc(Oc3cc(-c4nn[nH]n4)ccn3)c2)c(C(F)(F)F)c1O` [Example 27, 1-(2-Hydroxy-4-{3-[4-(2H-tetrazol-5-yl)-pyridin-2-yloxy]-benzyloxy}-3-trifluoromethyl-phenyl)-ethanone], the pEC50 on human mGlu2 receptors was more than 6.46. At human CysLT1 receptor, the pIC50 was more than 6.82.

With `CC(=O)c1ccc(OCc2ccc(Oc3cc(-c4nn[nH]n4)ccn3)cc2)c(C)c1O` [Example 21, 1-(2-Hydroxy-3-methyl-4-{4-[4-(1H-tetrazol-5-yl)-pyridin-2-yloxy]-benzyloxy}-phenyl)-ethanone], the pEC50 at human mGlu2 receptors was more than 6.46. At human CysLT1 receptor, the pIC50 is more than 6.82.

On to `CC(=O)c1ccc(OCc2ccc(Oc3cccc(-c4nn[nH]n4)c3)cc2)c(C)c1O` [Example 22, 1-(2-Hydroxy-3-methyl-4-{4-[3-(1H-tetrazol-5-yl)-phenoxy]-benzyloxy}-phenyl)-ethanone], for which the pEC50 at human mGlu2 receptors is more than 6.46.
